The values that follow come from PubChem BioAssay AID1996.

Structures are written as SMILES. Converted amounts (≈) assume the structure as drawn.

The conditions of this data set: buffer; pH 7.4; 200.0 µM.
`CN1C(=O)C(CC(=O)O)S/C1=N\N=C\c1ccc(O)cc1O` (stereo not given) showed a solubility (kinetic) of more than 48.5 µg/mL.
For `Cn1ccnc1SCC(=O)Nc1cc(F)ccc1F` the value was 41.8 µg/mL (≈ 148 µM); for `O=C(C[n+]1ccc(/C=N/O)cc1)NC(=O)Nc1ccccc1`, 41.6 µg/mL; for `Cc1cc(C(=O)CCC(=O)Nc2ncccc2O)c(C)s1`, more than 45.7 µg/mL.
`COc1cc(C(=O)Nc2ccccc2C(=O)Nc2ccccn2)cc(OC)c1OC` displayed a solubility (kinetic) of 4.6 µg/mL (≈ 11.3 µM).
In the case of `Fc1ccc(COc2ccc(C(=S)N3CCCC3)cc2)cc1` it was less than 0.7 µg/mL.
In the case of `COc1ccccc1NC(=S)Nc1cccc2cnccc12` it was 40.9 µg/mL (≈ 132 µM); in that of `COn1c(=O)c(-c2cccc(Br)c2)[n+]([O-])c2ccccc21`, 4.9 µg/mL (≈ 14.1 µM); in that of `Brc1ccc2[nH]c3c(c2c1)CCC3`, 3.1 µg/mL (≈ 13.1 µM).
For `CSc1ncccc1C(=O)Nc1cc(C)ccn1` the value was more than 38.9 µg/mL.
In the case of `COC(=O)/C(=C\c1ccc(O)cc1)c1nc2ccccc2[nH]1`, the kinetic solubility stood at 39.6 µg/mL (≈ 135 µM).
In the case of `O=C1NC(=O)c2cc([N+](=O)[O-])cc3cccc1c23` it was 6.3 µg/mL (≈ 26 µM); in that of `CC(=O)Nc1ccc2nc(-c3cccn3C)[nH]c2c1`, 33.4 µg/mL (≈ 131 µM); in that of `Cn1nc(C(C)(C)C)c([N+](=O)[O-])c1C(=O)N1CCOCC1`, more than 44.4 µg/mL.
In the case of `Cc1[nH]c2ccccc2c1C(=O)C(=O)N(C)C1CCCCC1` it was more than 44.8 µg/mL; in that of `Cc1[nH]c2nc3ccccc3n2c(=O)c1CCC(C)C`, less than 0.2 µg/mL.
For `CC(CC(=O)Nc1nccs1)c1ccccc1` (stereo not given) the value was 32.5 µg/mL (≈ 132 µM).
On to `O=C(COC(=O)COc1cc(Cl)c(Cl)cc1Cl)NC1CC1`, for which the kinetic solubility was found to be 23.6 µg/mL (≈ 66.9 µM).
In the case of `Cc1ccc(OCC(=O)Nc2ccncc2)cc1` it was 35.1 µg/mL (≈ 145 µM); in that of `O=C(CN1C(=O)NC2(CCCCCC2)C1=O)Nc1ccc(Cl)c([N+](=O)[O-])c1`, 5.8 µg/mL (≈ 14.7 µM); in that of `COc1ccc2[nH]c(-c3ccccc3)cc2c1`, less than 0.5 µg/mL.
As for `COc1ccc(C(=O)NCC(=O)N2CCCC(C)C2)cc1OC` (stereo not given), the kinetic solubility was more than 48.1 µg/mL.
For `Cc1nn(C)c(C)c1NC(=O)COc1ccc(Cl)cc1` the value was more than 44.1 µg/mL.
In the case of `CCOc1cccc(C(=O)NC(=S)Nc2ccc3c(c2)OCCO3)c1` it was 4 µg/mL (≈ 11.2 µM).
For `CC1CCN(C(=O)CSc2n[nH]c(-c3cccs3)n2)CC1` the value was more than 48.4 µg/mL; for `CN1CCCN(C(=O)CNC(=O)Cc2ccccc2)CC1`, more than 43.4 µg/mL; for `COc1ccccc1NC(=O)COC(=O)c1cc(C)n(C2CC2)c1C`, 3.4 µg/mL (≈ 9.93 µM).
Turning to `CC(=O)c1cccc(NC(=O)COC(=O)C2CCCN2C(=O)c2cccs2)c1` (stereo not given), the solubility (kinetic) was determined as 6.5 µg/mL (≈ 16.2 µM).
For `O=C(O)/C=C/C(=O)Nc1ccc(Cl)c(C(=O)O)c1` the value was 38 µg/mL (≈ 141 µM).
For `C=CCC1(N(C(C)=O)c2ccccc2C)CCCCC1` the value was 6.7 µg/mL (≈ 24.7 µM); for `Cc1cccc(N)c1-c1c(C)cccc1N`, more than 31.8 µg/mL; for `CC(=O)N(Cc1cccs1)Cc1cc2cc(C)c(C)cc2nc1Cl`, 4.3 µg/mL (≈ 12 µM).
Consider `Cc1ccc(NC(=O)CCCNC(=O)c2ccc(Cl)cc2)nc1`, for which the solubility (kinetic) stood at 4.1 µg/mL (≈ 12.4 µM).
In the case of `O=C(Nc1ccccc1)c1cc2ccc3ccccc3c2s1` it was less than 0.6 µg/mL; in that of `COCCNC(=O)C(OC(=O)c1cccs1)c1ccc(F)cc1` (stereo not given), more than 50.6 µg/mL.
In the case of `Cc1cc[n+](CC(=O)Nc2cccc(C)c2)cc1.[Cl-]` it was more than 41.5 µg/mL; in that of `CCNC(=S)N1CCn2cccc2C1c1cccnc1` (stereo not given), 41 µg/mL (≈ 143 µM).
For `COCn1c(C(O)c2ccccc2)cc2ccccc21` (stereo not given) the value was 38.9 µg/mL (≈ 146 µM); for `O=[N+]([O-])c1ccc(C(O)CN2CCN(c3ccccc3)CC2)cc1` (stereo not given), 3 µg/mL (≈ 9.16 µM); for `CCCc1nc2cc(Cl)c([N+](=O)[O-])cc2o1`, 5 µg/mL (≈ 20.8 µM).
For `O=C(CC(NC(=O)c1ccccc1)c1ccccc1)NCc1ccccc1` (stereo not given), the solubility (kinetic) stood at 4.1 µg/mL (≈ 11.4 µM).
In the case of `O=C(O)CCN1CCc2ccccc2C1c1ccncc1` (stereo not given) it was more than 42.4 µg/mL; in that of `O=C(O)CC(c1ccccc1)N1C(=O)c2ccccc2C1=O` (stereo not given), 43.9 µg/mL (≈ 149 µM); in that of `Cc1nnc(SCC(=O)NC(=O)NC(C)C)s1`, more than 41.2 µg/mL.
In the case of `COc1ccc(S(=O)(=O)NCCc2ccccn2)cc1` it was more than 43.9 µg/mL; in that of `CCOc1cccc2cc(C(=O)NCc3ccc(C)cc3)c(=N)oc12`, 2.4 µg/mL (≈ 7.13 µM); in that of `Cc1cc(Nc2ccc(Br)cc2)nc(-c2ccccc2O)n1`, less than 0.3 µg/mL.
For `CN(C(=O)CSc1nc2c(c(=O)[nH]1)CCC2)c1ccccc1` the value was more than 47.3 µg/mL; for `CC(C)C(=O)Nc1cccc(-c2nc3ncccc3o2)c1`, 37.5 µg/mL (≈ 133 µM).
For `O=C(Nc1cc(S(=O)(=O)N2CCOCC2)ccc1N1CCOCC1)c1ccccc1[N+](=O)[O-]`, the kinetic solubility is more than 71.5 µg/mL.
In the case of `C=CCn1c(C)c(C=C2C(=O)NC(=O)NC2=O)c2ccccc21` it was more than 46.4 µg/mL; in that of `COc1ccc(CCN=Cc2ccccc2O)cc1OC`, more than 42.8 µg/mL.
For `CCc1nc2ccc(N3CCN(C)CC3)cc2nc1CC` the value was 35.2 µg/mL (≈ 124 µM); for `CCCCC(=O)NCc1ccccc1Cl`, more than 33.9 µg/mL.
For `CCOC(=O)COc1nc(-c2ccccc2)cc(-c2ccco2)c1C#N` the value was less than 0.4 µg/mL; for `COc1ccc(NC(=S)N(CCO)Cc2ccccc2)cc1`, 44.7 µg/mL (≈ 141 µM).
`COc1ccc(CCc2nc(-c3cccs3)no2)cc1` registered a kinetic solubility of 2.3 µg/mL (≈ 8.03 µM).
For `CC1(C)CC(NCCC(c2ccccc2)c2ccco2)CCO1` (stereo not given) the value was 44.5 µg/mL (≈ 142 µM); for `CS(=O)(=O)c1cccc(C(=O)OCC(=O)NC(=O)Nc2ccccc2F)c1`, 5.2 µg/mL (≈ 13.2 µM).
For `Cc1cnc(=O)[nH]c1SCc1ccccc1F` the value was more than 37.5 µg/mL; for `COc1ccccc1N(CC1CO1)S(=O)(=O)c1ccccc1` (stereo not given), more than 47.9 µg/mL.
Compound `COc1cccc(NC(=O)Cc2ccc3ccccc3c2)c1` registered a kinetic solubility of 2.2 µg/mL (≈ 7.55 µM).
For `Cc1cc(C)cc(NC(=O)C2CCN(c3cnccn3)CC2)c1` the value was 13.7 µg/mL (≈ 44.1 µM).
In the case of `COc1ccc(OC)c(NC(=O)CN2CCc3ccccc3C2)c1` it was 14.9 µg/mL (≈ 45.7 µM); in that of `CC(=O)N(c1nc(CCl)cs1)c1cccc(C)c1C`, more than 44.2 µg/mL.
In the case of `O=C(COC(=O)c1ccc2ncsc2c1)NCc1ccccc1Cl` it was 10.4 µg/mL (≈ 28.8 µM); in that of `O=S(=O)(NCCN1CCCC1)c1ccc(C(F)(F)F)cc1`, more than 48.4 µg/mL; in that of `COC(=O)c1sccc1NC(=O)c1c(F)c(F)c(F)c(F)c1F`, less than 0.8 µg/mL.
The compound `O=C(OCC(=O)N1CCCCC1)c1ccc(OC(F)(F)F)cc1` yielded a kinetic solubility of 16.2 µg/mL (≈ 48.9 µM).
In the case of `O=C(NC1CCCCC1)C1CC(=O)N(CCc2ccc(F)cc2)C1` (stereo not given) it was 45 µg/mL (≈ 135 µM); in that of `CC(C)c1nc2oc3c(=O)[nH]cnc3c2c2c1COC(C)(C)C2`, more than 47 µg/mL; in that of `Cc1ccc(S(=O)(=O)N2CCCCC2)cc1NC(=O)COC(=O)c1cccn1C`, 9 µg/mL (≈ 21.5 µM).
`COc1ccc(CCNC(=O)c2ccc(C)s2)cc1OC` came in with a kinetic solubility of more than 45.8 µg/mL.
In the case of `CC(C)c1nc(SCC(=O)c2ccc(F)cc2)c2ccccc2n1` it was 1.7 µg/mL (≈ 4.99 µM).
For `CC(C)C(=O)NCc1cc(-c2ccccc2)no1` the value was 32.5 µg/mL (≈ 133 µM).

As usually defined, the solubility (kinetic) is solubility judged after dilution from a stock solution rather than from solid.
